Test results as given in patent US8916575B2, “Quinazoline derivatives for the treatment of viral infections and further diseases” (Janssen R&D Ireland, priority 2011, dated 2014).

How the values were obtained:
human TLR7 = molecular target: T1, human TLR7 (Homo sapiens, UniProt Q9NYK1); assay: TLR7 wild type NFκB-luc cellular reporter assay; assay type: cell-based; parameters: unit not given here; details: HEK293 NFκB-luc reporter, 6 hours incubation; second part of table
T1 construct: expressed in transfected cells; host or cells: HEK293
T1 sequence (Q9NYK1 27-1049): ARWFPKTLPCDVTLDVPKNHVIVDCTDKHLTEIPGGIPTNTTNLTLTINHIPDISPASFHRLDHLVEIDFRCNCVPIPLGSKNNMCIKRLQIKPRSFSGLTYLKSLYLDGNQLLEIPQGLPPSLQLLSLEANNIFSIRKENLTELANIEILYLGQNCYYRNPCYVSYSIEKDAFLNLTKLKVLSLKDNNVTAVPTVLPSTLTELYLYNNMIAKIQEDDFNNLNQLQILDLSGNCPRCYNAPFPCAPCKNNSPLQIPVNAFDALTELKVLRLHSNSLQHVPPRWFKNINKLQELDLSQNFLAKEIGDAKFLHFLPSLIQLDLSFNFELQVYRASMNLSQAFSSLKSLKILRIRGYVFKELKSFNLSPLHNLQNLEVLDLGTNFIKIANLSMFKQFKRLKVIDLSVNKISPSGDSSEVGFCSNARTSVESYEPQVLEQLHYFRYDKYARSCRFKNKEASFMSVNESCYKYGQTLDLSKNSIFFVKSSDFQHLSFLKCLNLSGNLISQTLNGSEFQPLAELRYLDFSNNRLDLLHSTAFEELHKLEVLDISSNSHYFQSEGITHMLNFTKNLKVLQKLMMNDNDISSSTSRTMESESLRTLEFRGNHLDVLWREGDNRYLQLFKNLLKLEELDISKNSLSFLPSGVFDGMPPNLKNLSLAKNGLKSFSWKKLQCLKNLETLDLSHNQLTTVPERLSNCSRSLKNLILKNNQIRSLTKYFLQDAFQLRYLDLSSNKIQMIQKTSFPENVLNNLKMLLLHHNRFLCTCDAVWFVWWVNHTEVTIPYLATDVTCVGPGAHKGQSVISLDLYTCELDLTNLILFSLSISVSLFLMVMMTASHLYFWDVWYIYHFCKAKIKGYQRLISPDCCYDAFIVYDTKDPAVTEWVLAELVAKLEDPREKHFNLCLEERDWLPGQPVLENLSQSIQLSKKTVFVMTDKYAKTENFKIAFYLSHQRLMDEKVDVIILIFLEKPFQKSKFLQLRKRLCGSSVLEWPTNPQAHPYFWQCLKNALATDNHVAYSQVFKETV
Method: The ability of compounds to activate human TLR7 and/or TLR8 was assessed in a cellular reporter assay using HEK293 cells transiently transfected with a TLR7 or TLR8 expression vector and NFκB-luc reporter construct. In one instance the TLR expression construct expresses the respective wild type sequence or a mutant sequence comprising a deletion in the second leucine-rich repeat of the TLR.
Briefly, HEK293 cells were grown in culture medium (DMEM supplemented with 10% FCS and 2 mM Glutamine). For transfection of cells in 10 cm dishes, cells were detached with Trypsin-EDTA, transfected with a mix of CMV-TLR7 or TLR8 plasmid (750 ng), NFκB-luc plasmid (375 ng) and a transfection reagent and incubated 24 hours at 37° C. in a humidified 5% CO2 atmosphere. Transfected cells were then detached with Trypsin-EDTA, washed in PBS and resuspended in medium to a density of 1.67×10^5 cells/mL. Thirty microliters of cells were then dispensed into each well in 384-well plates, where 10 μL of compound in 4% DMSO was already present. […] Dose response curves were generated from measurements performed in quadruplicates. Lowest effective concentrations (LEC) values, defined as the concentration that induces an effect which is at least two fold above the standard deviation of the assay, were determined for each compound.

[1] = system: interferon-stimulated responsive elements (ISRE); assay: Activation of ISRE promoter elements by conditioned media from PBMC (HEK-ISREluc); assay type: cell-based, human; parameters: unit not given here; details: compound applied to PBMCs, supernatant transferred to HEK-ISREluc cells, 24 hours
Method: The potential of compounds to induce IFN-I was also evaluated by measuring the activation of interferon-stimulated responsive elements (ISRE) by conditioned media from PBMC. The ISRE element of sequence GAAACTGAAACT is highly responsive to the STAT1-STAT2-IRF9 transcription factor, activated upon binding of IFN-I to their receptor IFNAR (Clontech, PT3372-5W). The plasmid pISRE-Luc from Clontech (ref. 631913) contains 5 copies of this ISRE element, followed by the firefly luciferase ORF. A HEK293 cell line stably transfected with pISRE-Luc (HEK-ISREluc) was established to profile of the conditioned PBMC cell culture media.
Briefly, PBMCs were prepared from buffy coats of at least two donors using a standard Ficoll centrifugation protocol. Isolated PBMCs were resuspended in RPMI medium supplemented with 10% human AB serum and 2×10^5 cells/well were dispensed into 384-well plates containing compounds (70 μL total volume). After overnight incubation, 10 μL of supernatant was transferred to 384-well plates containing 5×10^3 HEK-ISREluc cells/well in 30 μL (plated the day before). Following 24 hours of incubation, activation of the ISRE elements was measured by assaying luciferase activity using 40 μL/well Steady Lite Plus substrate (Perkin Elmer) and measured with ViewLux ultraHTS microplate imager (Perkin Elmer). The stimulating activity of each compound on the HEK-ISREluc cells was reported as LEC value, defined as the compound concentration applied to the PBMCs resulting in a luciferase activity at least two fold above the standard deviation of the assay. The LEC in turn indicates the degree of ISRE activation on transfer of a defined amount of PBMC culture medium. Recombinant interferon α-2a (Roferon-A) was used as a standard control compound.

| SMILES | TLR7-wt (LEC) (human TLR7) | HEK-ISRE luc (LEC) [1] |
| --- | --- | --- |
| CCC[C@@H](CCO)Nc1nc(N)nc2c(F)cccc12 [Compound 63] | 0.29 | 0.04 |
| CCC[C@@H](CCO)Nc1nc(N)nc2cc(F)ccc12 [Compound 64] | 0.11 | 0.04 |
| CCC[C@@H](CCO)Nc1nc(N)nc2ccc(F)cc12 [Compound 65] | 0.94 | 0.56 |
| CCC[C@@H](CCO)Nc1nc(N)nc2cccc(F)c12 [Compound 66] | 0.22 | 0.06 |
| CC[C@H](C)[C@@H](CO)Nc1nc(N)nc2c(F)cccc12 [Compound 67] | 2.50 | 0.21 |
| CC[C@H](C)[C@@H](CO)Nc1nc(N)nc2ccc(F)cc12 [Compound 68] | 4.57 | 0.64 |
| CCC[C@@H](CO)Nc1nc(N)nc2c(Cl)cccc12 [Compound 69] | 7.48 | 0.73 |
| CCC[C@@H](CO)Nc1nc(N)nc2cc(Cl)ccc12 [Compound 70] | 0.41 | 0.01 |
| CCC[C@@H](CO)Nc1nc(N)nc2cccc(Cl)c12 [Compound 71] | 1.02 | 0.03 |
| CCC[C@@H](CO)Nc1nc(N)nc2cc(F)c(F)cc12 [Compound 72] | 2.59 | 0.05 |
| CCCC[C@@H](CCO)Nc1nc(N)nc2cc(C)ccc12 [Compound 73] | 0.03 | 0.02 |
| CCCC[C@@H](CCO)Nc1nc(N)nc2ccc(C)cc12 [Compound 74] | 0.44 | 0.14 |
| CCCC[C@@H](CCO)Nc1nc(N)nc2cccc(C)c12 [Compound 75] | 0.14 | 0.02 |
| CCCC[C@@H](CO)Nc1nc(N)nc2cc(OC)ccc12 [Compound 76] | 0.26 | 0.09 |
| CCCC[C@@H](CO)Nc1nc(N)nc2ccc(OC)cc12 [Compound 77] | 3.48 | 1.93 |
| CCC[C@@H](CCO)Nc1nc(N)nc2cc(OC)ccc12 [Compound 78] | 0.20 | 0.04 |
| CCC[C@@H](CCO)Nc1nc(N)nc2ccc(OC)cc12 [Compound 79] | 11.87 | 2.07 |
| CC[C@H](C)[C@@H](CO)Nc1nc(N)nc2ccc(OC)cc12 [Compound 80] | >25 | >24 |
| CCCC[C@@H](CCO)Nc1nc(N)nc2c(F)cccc12 [Compound 81] | 0.11 | 0.05 |
| CCCC[C@@H](CCO)Nc1nc(N)nc2cc(F)ccc12 [Compound 82] | 0.04 | 0.04 |
| CCCC[C@@H](CCO)Nc1nc(N)nc2ccc(F)cc12 [Compound 83] | 1.59 | 0.37 |
| CCCC[C@@H](CCO)Nc1nc(N)nc2cccc(F)c12 [Compound 84] | 0.44 | 0.09 |
| CCCCNc1nc(N)nc2ccc(Br)cc12 [Compound 85] | 0.51 | 0.21 |
| CCC[C@@H](CO)Nc1nc(N)nc2cc(C(=O)OC)ccc12 [Compound 86] | 2.01 | 0.28 |
| CCCC[C@@H](CCO)Nc1nc(N)nc2cc(OC)ccc12 [Compound 87] | 0.16 | 0.04 |
| CCCC[C@@H](CCO)Nc1nc(N)nc2ccc(OC)cc12 [Compound 88] | 1.85 | 0.88 |
| CCCCNc1nc(N)nc2cc(OC)c(OCc3ccccc3)cc12 [Compound 89] | 1.84 | >24 |
